# Source: patent EP4516309A1, “CRHR1 AGONISTS FOR USE IN THE TREATMENT OF SOCIAL ANXIETY DISORDERS” (Consejo Superior de Investigaciones Cientificas, priority 2023, dated 2025)
# Biological target: T1, excitatory DREADD (Homo sapiens, UniProt P20309, A239G/Y149C)
# T1 construct: host or cells: ILA CRH+ neurons of CRH-Cre mice, Cre-dependent AAV2/5 transduction in vivo
# Experiment: c-fos / mCherry overlap in ILA after familiar animal presentation, excitatory DREADD
# Format: in vivo, CRH-Cre mice
# Conditions: CNO i.p. 30 min before familiar animal presentation; vs. saline
# Description: Mice were anesthetized using isoflurane then perfused in the heart with 10 mL saline and their brains were quickly extracted and incubated in 4% PFA overnight. After 1 h washing in PBS, 60 µm slices were prepared using a Leica VT1000S vibratome (Leica Biosystems). Unless indicated otherwise, slices were permeabilized for 2h in PBS with 0.5% Triton-X100 (T9284, Sigma-Aldrich) in PBS before being incubated overnight at 4°C with primary antibodies diluted in PBS with 0.5% Triton-X in PBS. The slices were washed in PBS for 1 h then incubated overnight at 4°C with secondary antibodies from Thermo-Fisher Scientific at a concentration of 1:500 diluted in PBS with 0.1% Triton-X. Hoechst counterstain was applied (Hoechst 33342 at 1:1000 for 30 min in PBS at RT) prior to mounting the slice using fluoromount (Sigma-Aldrich). Images were acquired using inverted confocal microscopes (Ism 900, Zeiss and SPII, Leica) or an epifluorescent microscope (Thunder, Leica). For post-hoc immunocytochemistry after patch-clamp recordings, slices were fixed for 1 h in PBS with 4% PFA and streptavidin was applied during secondary incubation. • For mRuby and GFP labelling, primary incubation was performed overnight at 4°C with rabbit anti-RFP (1:500, Rockland Antibody, #600-401-379) and chicken anti-GFP (1:1000, Aves, #GFP-1020) antibodies. […]
# T1 sequence (P20309 whole entry Y149C/A239G): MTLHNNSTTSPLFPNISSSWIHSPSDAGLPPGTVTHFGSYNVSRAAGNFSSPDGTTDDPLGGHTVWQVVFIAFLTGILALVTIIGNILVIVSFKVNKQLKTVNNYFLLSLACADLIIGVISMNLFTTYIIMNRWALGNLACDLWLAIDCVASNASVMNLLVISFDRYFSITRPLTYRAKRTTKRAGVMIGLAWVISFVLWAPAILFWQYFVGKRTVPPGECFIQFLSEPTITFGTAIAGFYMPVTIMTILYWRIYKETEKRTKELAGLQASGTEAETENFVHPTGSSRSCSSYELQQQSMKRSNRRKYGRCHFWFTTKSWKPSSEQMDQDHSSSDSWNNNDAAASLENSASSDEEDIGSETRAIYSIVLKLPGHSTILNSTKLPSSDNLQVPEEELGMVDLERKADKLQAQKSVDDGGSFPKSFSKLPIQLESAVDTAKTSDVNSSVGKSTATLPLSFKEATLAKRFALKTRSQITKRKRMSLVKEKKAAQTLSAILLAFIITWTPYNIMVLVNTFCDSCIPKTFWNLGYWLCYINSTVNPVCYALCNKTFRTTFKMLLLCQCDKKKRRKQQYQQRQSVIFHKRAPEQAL
compound,measurement,value
"C[N+]1([O-])CCN(C2=Nc3cc(Cl)ccc3Nc3ccccc32)CC1 [CNO, clozapine N-oxide]",c-fos/mCherry+ overlap in ILA,increased c-fos/mCherry+ overlap
